Assay [1] deals with E. amylovora. Description: Broth microdilution MIC and FIC index (CLSI protocol).
Protocol: The antimicrobial activity of the crop defence compositions prepared in above Examples was evaluated through in vitro test of antimicrobial susceptibility with broth microdilution method (CLSI protocol—Clinical and Laboratory Standards Institute).
The Minimum Inhibitory Concentrations (MICs) were determined in multiwell plates.
The determination of synergy was evaluated by using standard protocol and evaluating in particular the FIC index.
The value of FIC index was determined through the following formula:
For assay [2], the system named is P. infestans. Description: microbe, parasite or virus in culture. Type of assay: cell-based.
Assay [3] relates to P. syringae. Description: Broth microdilution MIC and FIC index (CLSI protocol). The conditions noted are these: triplicate. Format: cell-based. An excerpt: FIC index>1: no synergistic effect.
Assay [4] concerns B. cinerea. The assay is described as above. Type of assay: cell-based.
For assay [5], the system named is Z. tritici. The description is as above. Type of assay: cell-based.
[6] abbreviates: E. amylovora, broth microdilution, triplicate.

Where two headings read alike, the source gives them in different places.

With `[Cu+2].[OH-].[OH-]` [Copper hydroxide, copper hydroxide], the MIC in assay [1] (setting [6]) is 375 µg/mL.

In the case of `[Cl-].[Cu+2].[Cu+2].[OH-].[OH-].[OH-]` [Copper oxychloride, copper oxychloride], the MIC in assay [2] (P. infestans, broth microdilution, triplicate) came to 3600 µg/mL.

As to `CCCCCCCC/C=C\CCCCCCCC(=O)[O-].[K+]` [Potassium oleate], the MIC amounted to 7.3 µg/mL in assay [1] (Erwinia amylovora); 30 µg/mL in assay [3] (Pseudomonas syringae, read-out: MIC); 220 µg/mL in assay [2] (Phytophthora infestans); 3770 µg/mL in assay [4] (Botrytis cinerea); 15100 µg/mL in assay [5] (Zymoseptoria tritici).

In the case of copper anthranilate, the results for the MIC in assay [1] (setting [6]) and in assay [3] were 290 µg/mL and 590 µg/mL, respectively.

For the compound copper salicylate, the MIC in assay [4] (B. cinerea, broth microdilution, triplicate) worked out at 60 µg/mL; in assay [5] (Z. tritici, broth microdilution, triplicate), 235 µg/mL.

The values above are taken from patent US20180352816A1, “COMPOSITION FOR CROP CARE AND PROTECTION” (ALPHA BIOPESTICIDES LIMITED, priority 2015, published 2018).
